Test results published in ChEMBL document CHEMBL1201862, “PubChem BioAssay data set” (2004).
The source made the active and inactive calls.

Tests used:
[1] = target: T1, Heat shock factor protein 1 (Mus musculus, UniProt P38532); experiment: decrease of HSF1-responsive luciferase luminescence – cell-based, NIH3T3, dose retest, confirmation (AID 2382); assay type: functional;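 also: NIH3T3 fibroblasts with HSF1-driven luciferase reporter stressed by proteasome inhibitor MG132; luminescence from HSF1-driven luciferase expression after 8 hours of MG132 stress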
T1 sequence (P38532 whole entry): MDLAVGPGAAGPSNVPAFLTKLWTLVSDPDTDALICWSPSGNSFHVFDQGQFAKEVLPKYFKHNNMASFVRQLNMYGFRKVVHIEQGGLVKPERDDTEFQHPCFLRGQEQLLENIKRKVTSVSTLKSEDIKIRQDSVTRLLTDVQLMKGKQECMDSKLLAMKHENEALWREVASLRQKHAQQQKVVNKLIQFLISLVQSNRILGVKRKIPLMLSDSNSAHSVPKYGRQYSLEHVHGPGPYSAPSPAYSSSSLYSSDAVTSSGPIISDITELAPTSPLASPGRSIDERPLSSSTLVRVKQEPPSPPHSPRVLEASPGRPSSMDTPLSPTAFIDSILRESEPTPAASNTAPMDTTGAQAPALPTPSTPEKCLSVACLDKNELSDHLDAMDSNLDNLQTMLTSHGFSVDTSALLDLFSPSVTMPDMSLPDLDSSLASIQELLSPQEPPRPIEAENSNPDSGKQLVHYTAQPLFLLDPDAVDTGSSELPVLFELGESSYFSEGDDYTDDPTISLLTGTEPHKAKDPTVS

Cytochrome P450 1A2 = target: T2, Cytochrome P450 1A2 (Homo sapiens, UniProt P05177);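 also: PubChem cytochrome P450 panel assay, CYP1A2 panel member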
T2 sequence (P05177 whole entry): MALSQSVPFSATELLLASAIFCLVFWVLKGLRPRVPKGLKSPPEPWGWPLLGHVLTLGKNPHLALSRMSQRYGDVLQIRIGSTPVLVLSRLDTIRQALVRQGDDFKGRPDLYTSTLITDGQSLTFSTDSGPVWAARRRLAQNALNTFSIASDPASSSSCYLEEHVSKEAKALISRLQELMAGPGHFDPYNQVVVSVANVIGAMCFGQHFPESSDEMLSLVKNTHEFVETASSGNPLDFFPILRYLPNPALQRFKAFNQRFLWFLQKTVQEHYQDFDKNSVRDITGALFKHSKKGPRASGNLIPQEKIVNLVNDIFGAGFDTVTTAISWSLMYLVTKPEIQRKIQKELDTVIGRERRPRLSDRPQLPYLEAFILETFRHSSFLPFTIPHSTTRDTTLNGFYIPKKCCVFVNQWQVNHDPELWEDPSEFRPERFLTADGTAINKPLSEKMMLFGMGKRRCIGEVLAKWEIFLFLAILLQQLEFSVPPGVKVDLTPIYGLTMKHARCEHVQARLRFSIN

[2] = test system: Streptococcus sp. 'group A'; experiment: Streptococcus pyogenes SK(-)GAS viability under kanamycin – luminescence, BacTiterGlo, confirmation, counter-screen for streptokinase expression inhibitor project, dose response (AID 1900); assay type: functional, organism-based
Streptokinase A = target: T3, Streptokinase A (Streptococcus pyogenes serotype M1, UniProt P10520); experiment: viability-normalized secreted streptokinase activity reduction – plasminogen activation absorbance, OD405, dose response (AID 1914); assay type: functional, Streptococcus pyogenes M1 GAS;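 also: secreted streptokinase activity via plasminogen activation per viability signal from cell pellet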
T3 sequence (P10520 whole entry): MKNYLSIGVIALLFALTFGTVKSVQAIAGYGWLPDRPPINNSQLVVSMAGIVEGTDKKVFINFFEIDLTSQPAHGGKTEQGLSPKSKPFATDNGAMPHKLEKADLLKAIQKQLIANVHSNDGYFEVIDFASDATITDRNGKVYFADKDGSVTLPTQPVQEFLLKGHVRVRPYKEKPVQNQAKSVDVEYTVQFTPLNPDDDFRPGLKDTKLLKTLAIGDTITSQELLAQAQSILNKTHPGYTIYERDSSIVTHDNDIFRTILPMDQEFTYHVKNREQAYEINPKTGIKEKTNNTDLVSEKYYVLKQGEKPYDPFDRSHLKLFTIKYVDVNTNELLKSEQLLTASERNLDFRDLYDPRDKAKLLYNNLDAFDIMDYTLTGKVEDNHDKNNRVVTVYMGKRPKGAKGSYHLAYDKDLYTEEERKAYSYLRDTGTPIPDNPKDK

Streptococcus = experiment: GAS UMAA2166 growth inhibition – luminescence, BacTiterGlo, counter-screen for streptokinase expression inhibitor project, dose response (AID 1915); assay type: functional, organism-based;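 also: potency for reduction of bacterial viability or growth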
Cytochrome P450 2C19 = Cytochrome P450 2C19 (Homo sapiens, UniProt P33261); experiment: Cytochrome panel assay with activity outcomes. Panel member name: p450-cyp2c19 Compounds with AC50 equal or less than 10 uM are considered active; assay type: functional
Sequence of Cytochrome P450 2C19 (P33261 whole entry): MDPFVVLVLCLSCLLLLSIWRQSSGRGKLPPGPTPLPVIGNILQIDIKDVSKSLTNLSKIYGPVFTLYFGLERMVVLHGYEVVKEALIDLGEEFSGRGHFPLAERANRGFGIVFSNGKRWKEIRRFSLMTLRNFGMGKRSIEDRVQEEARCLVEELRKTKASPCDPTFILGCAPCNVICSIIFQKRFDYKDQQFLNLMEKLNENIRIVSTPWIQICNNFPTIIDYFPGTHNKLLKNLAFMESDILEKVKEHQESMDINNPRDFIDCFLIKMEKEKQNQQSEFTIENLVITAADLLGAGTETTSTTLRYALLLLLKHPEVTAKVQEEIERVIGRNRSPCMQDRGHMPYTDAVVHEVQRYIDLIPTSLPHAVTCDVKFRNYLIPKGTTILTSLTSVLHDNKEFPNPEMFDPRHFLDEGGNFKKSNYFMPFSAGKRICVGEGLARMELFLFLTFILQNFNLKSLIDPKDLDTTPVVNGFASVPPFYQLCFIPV

Cytochrome P450 2D6 = Cytochrome P450 2D6 (Homo sapiens, UniProt P10635);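 also: CYP2D6 member of a cytochrome P450 panel assay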
Sequence of Cytochrome P450 2D6 (P10635 whole entry): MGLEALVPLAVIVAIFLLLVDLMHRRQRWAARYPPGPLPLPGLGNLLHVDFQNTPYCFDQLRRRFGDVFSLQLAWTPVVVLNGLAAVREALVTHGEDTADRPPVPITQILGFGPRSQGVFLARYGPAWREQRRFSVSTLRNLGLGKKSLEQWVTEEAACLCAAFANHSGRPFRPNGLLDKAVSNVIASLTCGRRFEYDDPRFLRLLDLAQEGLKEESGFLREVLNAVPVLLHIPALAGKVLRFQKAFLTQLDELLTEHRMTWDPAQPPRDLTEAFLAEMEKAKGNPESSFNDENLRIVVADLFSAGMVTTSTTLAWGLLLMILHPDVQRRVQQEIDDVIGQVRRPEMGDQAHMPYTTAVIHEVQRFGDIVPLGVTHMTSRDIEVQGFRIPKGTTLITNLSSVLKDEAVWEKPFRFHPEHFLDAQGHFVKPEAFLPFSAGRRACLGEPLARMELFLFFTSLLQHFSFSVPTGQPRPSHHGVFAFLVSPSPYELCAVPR

INS1 = experiment: INS-1E survival protection against cytokine death – cell-based, luminescence, retest, dose response (AID 449756); assay type: functional; conditions: Rattus norvegicus;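 also: cell death triggered by IL-1 beta plus TNF-alpha plus IFN-gamma mixture; protective hits raise ATP signal compared with cytokine alone wells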
[3] = Luminescence Cell-Based Dose Retest to Confirm Inhibitors of Cancer Stem Cells. [Related pubchem assays (depositor defined):AID2717, AID2721]; assay type: functional; conditions: Homo sapiens
[4] = target: T4, Corticotropin-releasing factor receptor 2/Corticotropin-releasing factor-binding protein (Homo sapiens, UniProt P24387+Q13324); experiment: activators of CRF receptor 2 with binding protein – uHTS hits, confirmation (AID 602473); assay type: functional; conditions: read-out: EC50_Mean
T4 sequence (Q13324 whole entry): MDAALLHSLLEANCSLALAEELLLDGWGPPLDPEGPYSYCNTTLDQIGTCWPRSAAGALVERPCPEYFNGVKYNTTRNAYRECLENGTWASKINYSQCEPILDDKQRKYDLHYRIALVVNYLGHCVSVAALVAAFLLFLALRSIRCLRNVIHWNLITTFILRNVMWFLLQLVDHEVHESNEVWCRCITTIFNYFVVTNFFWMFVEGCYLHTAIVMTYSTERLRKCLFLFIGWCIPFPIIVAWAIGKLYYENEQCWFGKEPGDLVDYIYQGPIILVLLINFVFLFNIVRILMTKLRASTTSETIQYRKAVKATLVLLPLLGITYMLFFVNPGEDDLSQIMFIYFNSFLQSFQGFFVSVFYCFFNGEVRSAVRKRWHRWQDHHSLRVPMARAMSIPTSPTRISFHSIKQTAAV
T4 sequence (P24387 whole entry): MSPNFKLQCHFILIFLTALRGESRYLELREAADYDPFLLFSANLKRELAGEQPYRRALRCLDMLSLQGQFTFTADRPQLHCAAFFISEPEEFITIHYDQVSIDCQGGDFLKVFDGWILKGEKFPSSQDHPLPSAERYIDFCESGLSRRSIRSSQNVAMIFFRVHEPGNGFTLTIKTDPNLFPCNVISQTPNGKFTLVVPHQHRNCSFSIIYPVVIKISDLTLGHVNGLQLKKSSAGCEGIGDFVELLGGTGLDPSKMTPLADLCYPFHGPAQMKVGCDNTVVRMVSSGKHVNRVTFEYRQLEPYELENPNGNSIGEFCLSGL

Cytochrome P450 2C9 = Cytochrome P450 2C9 (Homo sapiens, UniProt P11712)
Sequence of Cytochrome P450 2C9 (P11712 whole entry): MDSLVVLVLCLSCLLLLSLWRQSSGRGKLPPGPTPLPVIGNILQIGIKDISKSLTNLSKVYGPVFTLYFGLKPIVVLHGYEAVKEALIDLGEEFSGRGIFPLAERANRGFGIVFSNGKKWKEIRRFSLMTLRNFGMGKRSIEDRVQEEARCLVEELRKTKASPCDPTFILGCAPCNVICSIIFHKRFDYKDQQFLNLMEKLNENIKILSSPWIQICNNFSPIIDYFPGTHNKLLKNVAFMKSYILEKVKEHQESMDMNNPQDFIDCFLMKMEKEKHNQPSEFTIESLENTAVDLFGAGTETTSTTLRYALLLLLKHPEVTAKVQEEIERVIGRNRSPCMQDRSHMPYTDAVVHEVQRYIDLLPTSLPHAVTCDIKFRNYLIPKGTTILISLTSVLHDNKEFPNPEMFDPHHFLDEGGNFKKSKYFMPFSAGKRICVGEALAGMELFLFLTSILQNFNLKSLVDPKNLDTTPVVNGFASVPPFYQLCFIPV

SMILES | EC50 [1] | AC50 (Cytochrome P450 1A2) | further results
C(#Cc1ccccc1)CN1CCN(c2ccccn2)CC1 | > 195 µM (not active) | – | –
COc1cc(C(=O)N2CCSCC2)ccc1OC1CCN(C(C)=O)CC1 | > 195 µM (not active) | – | –
CCOC(=O)c1c(C)nc2c(c1-c1ccc(OC)cc1)C(=O)CC(C)(C)C2 | – | 14.1 µM (inconclusive) | –
Cc1ccc(OP(=O)(Nc2cccc(C)c2)Oc2ccc(C)cc2)cc1 | – | – | EC50 [2]: 13 µM (active); EC50 (Streptokinase A): 5.1 µM (active); EC50 (Streptococcus): 28.9 µM (active)
CC1CCOC2(O1)C(=O)N(CN1CCN(c3ccccc3F)CC1)c1ccccc12 (configuration not stated) | – | 2 µM (inconclusive) | AC50 (Cytochrome P450 2C19; read-out: AC50): 11.2 µM (inconclusive); AC50 (Cytochrome P450 2D6): 25.1 µM (inconclusive)
CCc1ccc(NC(=O)C2C3CCC(O3)C2C(=O)O)cc1 (configuration not stated) | 67 µM (active) | – | –
CCN(c1ccccc1)S(=O)(=O)c1ccc(Cl)c(NC(=O)CSc2nnc(C)s2)c1 | > 195 µM (not active) | – | –
CC1(C)NC(=O)N(CC(O)CN(c2ccccc2)S(=O)(=O)c2ccc([N+](=O)[O-])cc2)C1=O (configuration not stated) | > 195 µM (not active) | – | –
O=C(c1ccco1)N1CCC2(CCN(Cc3ccncc3)CC2)CC1 | – | 20 µM (inconclusive) | AC50 (Cytochrome P450 2D6): 10 µM (inconclusive)
COc1ccc(OC)c(C2N(c3cc(C)on3)C(=O)C3CCCN32)c1 (configuration not stated) | – | 25.1 µM (inconclusive) | AC50 (Cytochrome P450 2C19): inconclusive
COc1ccc2c(C(=O)NCc3ccc4c(c3)OCO4)c(-c3ccc(S(C)(=O)=O)cc3)sc2c1 | – | – | AC50 (INS1): 6.76 µM (active)
CC(C)(C)OC(=O)NCc1ccc(NC(=O)c2[nH]cnc2C(=O)NCCCCNC(=O)c2nc[nH]c2C(=O)Nc2ccc(CNC(=O)OC(C)(C)C)cc2)cc1 | – | – | AC50 [3]: 1.73 µM (active); AC50 (INS1): 3.36 µM (active)
CN(C)c1ccc(C=C2SC(=S)NC2=O)cc1 | – | – | EC50 [4]: 4.78 µM (active)
CCOC(=O)C1=C(COc2ccc(F)cc2Cl)NC(=O)NC1c1cc(C)ccc1C (configuration not stated) | – | 17.8 µM (inconclusive) | –
N[C@H](Cc1ccccc1)c1nnn[nH]1 | – | 10 µM (inconclusive) | –
Cc1ccc(S(=O)(=O)c2cc3ccccc3o/c2=N\c2ccc3c(c2)OCO3)cc1 | – | 2.82 µM (inconclusive) | AC50 (Cytochrome P450 2D6): 7.94 µM (inconclusive); AC50 (Cytochrome P450 2C9): 3.55 µM (inconclusive)
CCn1c(C(C#N)/C(=N\S(=O)(=O)c2cccs2)c2ccccc2)nc2ccccc21 (configuration not stated) | > 195 µM (not active) | – | –
C/C(CC(=O)Nc1ccccc1C(F)(F)F)=N\NC(=O)c1cnccn1 | > 195 µM (not active) | – | –
COc1ccc(CN2C(=O)c3ccccc3C(/C=N/OCc3ccc(Cl)cc3)C2=O)cc1 (configuration not stated) | – | – | EC50 [2]: 1.44 µM (active); EC50 (Streptokinase A): > 150 µM (not active); EC50 (Streptococcus): 8.28 µM (active)
C/C(=N\O)C1CCCCC1 | > 195 µM (not active) | – | –
NC1(C(=O)O)CCC1 [1-AMINOCYCLOBUTANE CARBOXYLIC ACID] | – | 39.8 µM (inconclusive) | –
